From EPA's aquatic toxicity sets come the findings set out here.

This series concerns Tetrahymena pyriformis. Briefly: 48 h IGC50 (-log10 mol/L); higher = more toxic.
Consider `N#CCCCC#N`, for which the “48 h IGC50 (-log10 mol/L)” value was 1.36.

On to `CCOC(=O)CBr`, for which the “48 h IGC50 (-log10 mol/L)” value was 5.68. With `N#CCCCCC#N`, the “48 h IGC50 (-log10 mol/L)” value was 1.46.

`COc1cc(O)ccc1O`: the “48 h IGC50 (-log10 mol/L)” value came to 5.2.

As to `NNC(=O)c1ccccc1O`, the “48 h IGC50 (-log10 mol/L)” value is 3.18. As for `N#Cc1ccccc1O`, the “48 h IGC50 (-log10 mol/L)” value was determined as 3.04. Take `CCCCCCCl`: the “48 h IGC50 (-log10 mol/L)” value was found to be 3.78. Take `CCCCCCCCOC(C)=O`: the “48 h IGC50 (-log10 mol/L)” value is 4.06. Regarding `CC(=O)c1cccc([N+](=O)[O-])c1`, the “48 h IGC50 (-log10 mol/L)” value turned out to be 3.32. For `Cc1ccc(C=O)c2ccccc12`, the “48 h IGC50 (-log10 mol/L)” value was determined as 4.12. As for `CC(C)(C)c1ccncc1`, the “48 h IGC50 (-log10 mol/L)” value worked out at 3.2. In the case of `CC1CCC(=O)O1` (configuration not stated) it was 1.43; in that of `N#Cc1cc(Br)c(O)c(Br)c1`, 4.16; in that of `Nc1cccc(O)c1`, 2.48.

Turning to `Cc1ccnc(Cl)c1[N+](=O)[O-]`, the “48 h IGC50 (-log10 mol/L)” value came out at 3.29. Next, `Oc1cccc(Br)c1`: 4.15; `Cc1cc(O)ccc1O`: 4.86; `Cc1c(O)cccc1[N+](=O)[O-]`: 3.78. In the case of `CCCCCOc1ccc(N)cc1` it was 3.97. Next, `CC=CC(C)O` (configuration not stated): 1.6; `CCOC(=O)c1ccc(C(C)(C)C)cc1`: 4.42. For the compound `Clc1ccccn1`, the “48 h IGC50 (-log10 mol/L)” value was found to be 2.16. Next, `CCCc1ccccc1N`: 3.08; `COc1ccc(CO)cc1O`: 2.01. Next, `N#CSCc1ccccc1`: 4.05; `OCCCc1ccccc1`: 2.79; `C#CCCCO`: 1.58.

As for `CC(=O)NC(C)(C)C`, the “48 h IGC50 (-log10 mol/L)” value is 1.84. On to `C#CC(O)C(C)C` (configuration not stated), for which the “48 h IGC50 (-log10 mol/L)” value was 2.97. As to `Cc1ccccc1C(=O)c1ccccc1`, the “48 h IGC50 (-log10 mol/L)” value is 4.37. For `O=[N+]([O-])CBr`, the “48 h IGC50 (-log10 mol/L)” value is 4.64.

On to `O/N=C\c1ccccc1`, for which the “48 h IGC50 (-log10 mol/L)” value worked out at 2.89. In the case of `CCCCC(=O)OCC` it was 2.64; in that of `CCCCC(=O)C(C)=O`, 3.04. Next, `O=[N+]([O-])c1ccc(Br)c([N+](=O)[O-])c1`: 5.31; `O=Cc1ccccn1`: 2.86; `O=C(CBr)c1ccccc1`: 5.82.

Regarding `CC/C=C\CCCCCC=O`, the “48 h IGC50 (-log10 mol/L)” value worked out at 3.95.

Consider `Brc1ccncc1.Cl`, for which the “48 h IGC50 (-log10 mol/L)” value was found to be 2.44.

As to `O=[N+]([O-])c1c(F)c(F)c(F)c(F)c1F`, the “48 h IGC50 (-log10 mol/L)” value is 5.43. Next, `OCCC(c1ccccc1)c1ccccc1`: 4.04; `Cc1cc(C)c(C)c(O)c1`: 3.36; `Oc1cccc(O)c1O`: 3.85. Next, `CC(Br)c1ccccc1` (configuration not stated): 2.33. Next, `O=C(OCc1ccccc1)c1ccccc1`: 4.45; `N#Cc1cccs1`: 2.24. Regarding `Cc1cc(Cl)ncc1[N+](=O)[O-]`, the “48 h IGC50 (-log10 mol/L)” value worked out at 3.42. Next, `COC(=O)C=C(C)C`: 1.94; `O=C1C=C(c2ccccc2)C(=O)C=C1c1ccccc1`: 4.48. Next, `OC1Cc2ccccc2C1`: 2.31; `N#CCCCc1ccccc1`: 3.15; `CN(C)Cc1ccccc1`: 3.12. On to `CCOc1ccc(C(=O)OC)cc1`, for which the “48 h IGC50 (-log10 mol/L)” value was determined as 3.58. In the case of `CN(CCO)CCO` it was 1.17.

Take `C/C(=N\O)C(=O)c1ccccc1`: the “48 h IGC50 (-log10 mol/L)” value worked out at 2.96. In the case of `CCCCCCCCC=O` it was 3.81; in that of `CCCCC/C=C/C(C)=O`, 3.98; in that of `OC/C=C\CO`, 0.851. As for `CC(=O)C(C)Cl` (configuration not stated), the “48 h IGC50 (-log10 mol/L)” value came to 3.27. Next, `O=[N+]([O-])c1cccc(F)c1`: 3.2; `CCCC#CCCO`: 2.68. In the case of `CCOC(=O)CI` it was 5.92; in that of `CCCCOC(=O)c1ccc(O)cc1`, 4.33.

Regarding `C#CC=CCO`, the “48 h IGC50 (-log10 mol/L)” value amounted to 2.44. `COC(=O)C(C)Br` (configuration not stated): the “48 h IGC50 (-log10 mol/L)” value turned out to be 4.18. `Cc1nccnc1C`: the “48 h IGC50 (-log10 mol/L)” value amounted to 2.13. Turning to `CCOC(=O)C#Cc1ccccc1`, the “48 h IGC50 (-log10 mol/L)” value amounted to 4.67. In the case of `C=CCC(=O)O` it was 2.36; in that of `CCC(=O)c1ccc(O)cc1`, 3.12; in that of `CCCCC#CCCO`, 3.02.

Consider `CCc1ccc([N+](=O)[O-])cc1`, for which the “48 h IGC50 (-log10 mol/L)” value came out at 3.43. In the case of `Oc1ccc(C(F)(F)F)cc1` it was 3.62.

For `O=Cc1ccc([N+](=O)[O-])s1`, the “48 h IGC50 (-log10 mol/L)” value was found to be 4.98. For `Cc1ccc(O)c(O)c1`, the “48 h IGC50 (-log10 mol/L)” value amounted to 3.37. Regarding `O=Cc1ccc(F)cc1`, the “48 h IGC50 (-log10 mol/L)” value amounted to 2.87. Consider `O=[N+]([O-])c1ccc(O)c(Cl)c1`, for which the “48 h IGC50 (-log10 mol/L)” value was found to be 4.18. Next, `N#Cc1cccc(C=O)c1`: 2.98; `CCCCCCCCC(=O)OC`: 4.04. Next, `CCCC(=O)O`: 2.43; `Cc1cccc(C)n1`: 2.19.

As for `CCCCCOc1ccc(C=O)cc1`, the “48 h IGC50 (-log10 mol/L)” value amounted to 4.18.

On to `Cc1cc(N)ccc1O`, for which the “48 h IGC50 (-log10 mol/L)” value was 4.31. Regarding `O=[N+]([O-])c1ccc(Br)nc1`, the “48 h IGC50 (-log10 mol/L)” value was 4.07.

Consider `Clc1sccc1Br`, for which the “48 h IGC50 (-log10 mol/L)” value amounted to 3.73. Take `N#CCc1ccc([N+](=O)[O-])cc1`: the “48 h IGC50 (-log10 mol/L)” value is 3.13. As to `CC(Br)C(N)=O` (configuration not stated), the “48 h IGC50 (-log10 mol/L)” value is 3. Consider `O=Cc1cccc(O)c1O`, for which the “48 h IGC50 (-log10 mol/L)” value is 3.11. With `Cc1cc[nH]c(=O)c1[N+](=O)[O-]`, the “48 h IGC50 (-log10 mol/L)” value was found to be 2.5. Consider `CC(C)(C)CO`, for which the “48 h IGC50 (-log10 mol/L)” value was 2.13.

For the compound `C1CSCCS1`, the “48 h IGC50 (-log10 mol/L)” value was 2.89.

In the case of `CC(C)C[C@H](N)CO`, the “48 h IGC50 (-log10 mol/L)” value was found to be 2.38. Next, `OCc1ccc2ccccc2c1`: 3.39; `CC(=O)c1c(C)c[nH]c1C`: 2.68. Next, `CCOC(=O)/C=C/c1ccccc1`: 3.99. As to `C/C=C/COC(C)=O`, the “48 h IGC50 (-log10 mol/L)” value worked out at 2.13.

As for `O=[N+]([O-])c1cc(C(F)(F)F)ccc1Cl`, the “48 h IGC50 (-log10 mol/L)” value was 3.85. Turning to `CCc1ccccc1O`, the “48 h IGC50 (-log10 mol/L)” value was determined as 3.16. Next, `Oc1ccc(-c2ccc(Br)cc2)cc1`: 5.31; `C#CC(=O)OCC`: 4.7. Next, `O=Cc1ccsc1`: 3.4; `NNC(=O)Cc1ccccc1`: 2.52. Turning to `Cc1ccc(N)cc1C`, the “48 h IGC50 (-log10 mol/L)” value was found to be 2.84.

With `Cc1ccc([N+](=O)[O-])cc1F`, the “48 h IGC50 (-log10 mol/L)” value amounted to 3.33. Next, `CC(=O)OCCCCCCl`: 2.87; `CC(C)CC#N`: 2.12; `Cc1ccsc1`: 2.3. `Nc1ccc([N+](=O)[O-])cn1`: the “48 h IGC50 (-log10 mol/L)” value was 3.22. As to `COC(=O)c1cc(O)cc(O)c1`, the “48 h IGC50 (-log10 mol/L)” value stood at 2.86. Next, `CCOC(=O)C(Br)C(=O)OCC`: 5.21. As to `Cc1ccc(O)cc1[N+](=O)[O-]`, the “48 h IGC50 (-log10 mol/L)” value is 3.74. In the case of `CCOC(=O)C[C@H](O)CC#N` it was 1.36; in that of `C/C=C/CC(=O)OC`, 2.72; in that of `COC(=O)c1ccc(C=O)cc1`, 3.3. In the case of `N#CC(Cl)(Cl)Cl` it was 4.88; in that of `Cc1cc(C)cc(N)c1`, 2.64; in that of `CCCCCCCC(C)O` (configuration not stated), 3.62. In the case of `Cc1cc(Br)cc(Cl)c1O` it was 4.28; in that of `N#Cc1ccc(Cl)c([N+](=O)[O-])c1`, 4.71.

For the compound `CC(C)CCBr`, the “48 h IGC50 (-log10 mol/L)” value came to 3.25. Regarding `Cc1cccc(N)c1C`, the “48 h IGC50 (-log10 mol/L)” value is 2.57. Consider `CCCCCBr`, for which the “48 h IGC50 (-log10 mol/L)” value came to 3.48. Next, `CCC(=O)C(=O)CC`: 2.99; `O=C1C=CC(=O)c2c(O)ccc(O)c21`: 5.83; `CC(=O)c1cc(C)c(C)cc1O`: 3.71. In the case of `CC(C)CN` it was 2.74.

With `CCOC(=O)C[C@@H](C)O`, the “48 h IGC50 (-log10 mol/L)” value was 1.47. Consider `OCCOc1cccc(O)c1`, for which the “48 h IGC50 (-log10 mol/L)” value turned out to be 2.13.

On to `CC(=O)C(C)=O`, for which the “48 h IGC50 (-log10 mol/L)” value amounted to 2.77. In the case of `COC(=O)c1ccc(C(C)(C)C)cc1` it was 3.92; in that of `CCCOc1ccc(O)cc1`, 3.52; in that of `N#CCC(=O)OC1CCCCC1`, 2.91. Next, `CC1=CC(=O)c2c(O)cccc2C1=O`: 5.2; `O=[N+]([O-])c1cc(Cl)ccc1O`: 5.12; `CC(O)CCO` (configuration not stated): 0.699.

On to `CCCCCCCN`, for which the “48 h IGC50 (-log10 mol/L)” value was 3.21. Next, `O=C(CBr)C(=O)CBr`: 4.76.

In the case of `O=[N+]([O-])c1cccc(O)c1`, the “48 h IGC50 (-log10 mol/L)” value stood at 3.51.
